Consider 17 molecules from article PMC12193058, “Discovery of Small Molecules Targeting Norovirus 3CL Protease by Multi-Stage Virtual Screening” (International Journal of Molecular Sciences, 2025).

Data set [1] has as its system Murine norovirus (MNV, strain MNV-1.CW1). Nature of the data set: Antiviral assay: MNV-infected RAW264.7 cells, protection from CPE (MTS). The format is cell-based. How it is done: (§1) Murine norovirus (MNV, strain MNV-1. CW1) was propagated as previously described. HG23 cells and RAW 264.7 cells were maintained as described earlier. The cells were incubated at 37 °C in a humidified atmosphere of 5% CO2. To obtain virus stock, once full CPE was observed, the cells underwent two freeze–thaw cycles and the virus was harvested from the supernatants after centrifugation (10 min, 1000× g) and stored at […]. The viral titer was determined by endpoint titration.
(§2) The experiment was performed as previously described. In short, RAW264.7 cells (1 × 10^4 cells/well) were infected with MNV.CW1 in the presence of a dilution series of compounds. Antiviral activity and cytotoxicity were determined using a colorimetric assay using 3-(4,5-dimethylthiazol-2-yl)-5-(3-carboxymethoxyphenyl)-2-(4 sulfophenyl)-2H-tetrazolium (MTS). The 50% effective concentration (EC50) was defined as the compound concentration that protected 50% of the cells from CPE. The cell viability % was calculated as (ODtreated/ODCC) × […] and the 50% cytotoxic concentration (CC50) was defined as the compound concentration that reduces the number of viable cells by 50%. HuNoVGI.1replicon: The experiment was performed as described earlier with minor modifications. In short, HG23 cells (7.5 × 10^2 cells/well) were seeded into the wells of a 96-well plate without G418 (Geneticin Selective Antibiotic). After 24 h of incubation, the tested compounds were added. The cells were incubated for another 72 h; then they were collected for RNA load quantification using RT-qPCR [34]. The EC50 values were defined as the compound concentration that led to a 50% reduction in the relative HuNoV GI.1 replicon RNA levels.

The nature of data set [2]: Cytotoxicity assay (MTS) in non-infected cells. Type of data set: cell-based. The settings on record: mouse, RAW264.7 cells (non-infected); cytotoxic concentration to induce 50% death of non-infected cells; mean of two to three independent experiments. How it is done: as §1, §2

Usually EC50 stands for the concentration giving half of the maximal effect. By CC50 is commonly meant the concentration at which the toxic effect on the cells reaches its halfway point. Read a high CC50 as better tolerance by the cells. For the molecule `CC1=NN=C(O)C1CC(=O)N/N=C/c1cccc(Br)c1` (stereo not shown) [YY-0182], in data set [1], the EC50 was greater than 50 µM. The CC50 in data set [2] was greater than 50 µM.
For `COc1cc(C(CC(=O)NCC(=O)NCc2ccco2)c2oc(C)cc(=O)c2O)ccc1O` (stereo not shown) [YY-0420], in data set [1], the EC50 was greater than 50 µM. The CC50 in data set [2] is greater than 50 µM.
`Cc1[nH][nH]c(=O)c1CC(=O)N1C[C@@H](c2ccccc2)O[C@@H](C(C)C)C1` [YY-0587] displayed an EC50 in data set [1] greater than 50 µM. In data set [2], this molecule returned a CC50 greater than 50 µM.
In data set [1], `CCC(SC1=Nc2ccccc2C2=NC(=O)C(CCC(=O)NCc3ccc(F)cc3)N12)C(=O)Nc1cccc(OC)c1` (stereo not shown) [YY-0734] came in with a 50% effective concentration (EC50) greater than 50 µM. For the same molecule, the CC50 in data set [2] was greater than 50 µM.
`Cc1cc(N)n(CC(=O)N(Cc2cccnc2)Cc2ccc3c(c2)OCO3)n1` [YY-0744] had an EC50 in data set [1] greater than 50 µM. The molecule further displayed a CC50 in data set [2] greater than 50 µM.
`Cc1nc2ccc(NC(=O)N3CCNC(=O)C3CCO)cc2nc1C` (stereo not shown) [YY-0809] came in with an EC50 in data set [1] greater than 50 µM. Besides, the CC50 in data set [2] is greater than 50 µM.
In turn, `COc1cncc(C(NC(=O)c2cc(=O)[nH]c3ccccc23)[C@H]2C[C@H](O)C2)c1` (stereo partly shown) [YY-3656] came in with an EC50 in data set [1] greater than 50 µM. In addition, in data set [2], the CC50 is greater than 50 µM.
On to `O=C(NC1CCCc2ccccc21)[C@H](Cc1ccccc1)NC(=O)N1CC(O)=Nc2ccccc21` (stereo partly shown) [YY-3724], for which the EC50 in data set [1] is greater than 50 µM. The CC50 in data set [2] is greater than 50 µM.
As to `CC(C)C1C(O)=Nc2ccccc2N1C(=O)N[C@@H](Cc1ccccc1)C(=O)N[C@@H](CCC(N)=O)C(=O)O` (stereo partly shown) [YY-4047], the EC50 in data set [1] is greater than 50 µM. In data set [2], this molecule returned a CC50 greater than 50 µM.
Regarding `CNC(=O)c1ccc(C)c(NC(=O)NCCN2CCNC2=O)c1` [YY-4095], in data set [1], the EC50 is greater than 50 µM. The CC50 in data set [2] is greater than 50 µM.
Take `COc1ccc(CCNC(=O)[C@H](Cc2ccccc2)NC(=O)N2CC(O)=Nc3ccccc32)cc1` [YY-4204]: the EC50 in data set [1] is greater than 50 µM. This molecule also registered a CC50 in data set [2] greater than 50 µM.
For the molecule `COc1ccc(C(CC(=O)N2CCc3c([nH]c4ccccc34)C2)c2oc(C)cc(=O)c2O)cc1O` (stereo not shown) [YY-4958], in data set [1], the EC50 was greater than 50 µM. This molecule also came in with a CC50 in data set [2] greater than 50 µM.
In the case of `CCCCNC(=O)[C@H](Cc1ccccc1)NC(=O)N1CC(O)=Nc2ccccc21` [YY-6127], the EC50 in data set [1] was greater than 50 µM. The molecule also gave a CC50 in data set [2] greater than 50 µM.
Regarding `COc1ccc(CCN(C(=O)Cc2nnc(O)c3ccccc23)[C@@H](C)C(N)=O)cc1` [YY-8610], the EC50 in data set [1] is greater than 50 µM. Besides, in data set [2], the CC50 is greater than 50 µM.
Regarding `O=C(ON1C(=O)CCC1=O)[C@H](Cc1ccccc1)NC(=O)N1CC(O)=Nc2ccccc21` [YY-9242], in data set [1], the EC50 was greater than 50 µM. In data set [2], this molecule yielded a CC50 greater than 50 µM.
Molecule `O=C(NCc1cccc(Cl)c1)[C@H](Cc1ccccc1)NC(=O)N1CC(O)=Nc2ccccc21` [YY-9773] yielded an EC50 in data set [1] greater than 50 µM. The molecule also came in with a CC50 in data set [2] greater than 50 µM.
In the case of `COc1cc(NC(=O)[C@H](Cc2ccccc2)NC(=O)N2CC(O)=Nc3ccccc32)cc(OC)c1` [YY-9837], in data set [1], the EC50 was greater than 50 µM. In data set [2], this molecule had a CC50 of 45 µM.
